Reference: patent US10800778B2 (Entasis Therapeutics Limited, priority 2016, dated 2020)
Counter-ions that a name gives are not always drawn. Each block holds one compound with its values, some of them ahead of it.

What was measured:
[1] = molecular target: TEM-1 (Class A beta-lactamase) (Escherichia coli, UniProt P62593); assay: Inhibition of beta-lactamase enzymes (nitrocefin hydrolysis), TEM-1; assay type: biochemical; conditions: read-out: Class A TEM-1 60 min IC50, nitrocefin 100 μM
How it was run: (§1)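 Nitrocefin (100 μM) hydrolysis followed at 490 nm for 1 h in 0.1 M sodium phosphate pH 7.0, 10 mM NaHCO3, 0.005% Triton X-100, with 3-fold inhibitor dilutions from 100 μM to 62.7 pM. Progress curves fitted globally to give kinact/Ki or Ki; percent inhibition from best-fit absorbance fitted with Hill equation.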

[2] = molecular target: OXA-48 (Class D beta-lactamase) (Klebsiella pneumoniae, UniProt Q6XEC0); assay: Inhibition of beta-lactamase enzymes (nitrocefin hydrolysis), OXA-48; assay type: biochemical; conditions: read-out: Class D OXA-48 60 min IC50, nitrocefin 100 μM
How it was run: as §1

[3] = test system: C. freundii AmpC, TEM-1, CMY65; assay: MIC, CLSI broth microdilution, beta-lactam with or without BLI; assay type: cell-based
Method: (§2) The minimal inhibitory concentration (MIC) values against each organism and drug combination were determined using the Clinical and Laboratory Standards Institute guidelines (CLSI) broth microdilution methodology (CLSI M07-A10). The recommended quality control (QC) bacterial strains E. coli ATCC 25922, E. coli ATCC 35218 and Klebsiella pneumoniae ATCC 700603 were incorporated into each test according to the CLSI guidelines to assure that there was no variation between test dates (CLSI M100-S25). The MICs of these QC strains were within QC range on all test occasions. Drug containing plates were made using the master plate method. A cefpodoxime solution was prepared to 20× concentration and 2-fold serial dilutions were made in cation adjusted Mueller-Hinton Broth. Equal volumes of 20× examplar compounds at a fixed concentration were added to the master plate. 10 uL was stamped into daughter plates using a Tecan EVO robot. Organism suspensions were adjusted to a 0.5 McFarland standard and further diluted to yield a final inoculum between 3×10^5 and 7×10^5 colony-forming units (CFU)/mL. Bacterial inocula were made in sterile, cation adjusted Mueller-Hinton Broth (Beckton Dickinson). An inoculum volume of 1.1× concentration of 90 uL was added to wells (using a Tecan EVO robot). All inoculated microdilution plates were incubated in ambient air at 35° C. for 18-24 hours.
(§3) Following the procedure from Example 103, MICs were determined for several beta-lactams in presence of a fixed concentration (4 μg/mL) of exemplar compounds (Table 3) against 3 Enterobacteriaceae strains.

E. coli WT (ATCC 25922) = assay: as above; assay type: cell-based
Method: as §2, §3

[4] = test system: Klebsiella pneumoniae SHV-18, OXA-2, OKP-6 (ATCC 700603); assay: as above; assay type: cell-based
Method: as §2, §3

[5] = Rat PK, intravenous and oral; assay type: in vivo, Sprague-Dawley rats; conditions: Sprague-Dawley, plasma; rat, IV 10 mg/kg; analyte = compound administered
Method: Intravenous rat pharmacokinetics of exemplar compounds were determined in jugular vein cannulated Sprague-Dawley rats (n=3) (Harlan Laboratories, Indianapolis, Ind.) at a dose of 10 mg/kg. Compounds were dissolved and administered intravenously in 0.9% saline, pH 6.5 at a dose volume of 2 mL/kg. […] Oral pharmacokinetic studies were conducted with exemplar compounds at 10 mg/kg equivalents of carboxylic acids. Doses were dissolved and administered orally in 25:75 PEG400: water for injection, pH 4.5 at a dose volume of 10 mL/kg. […] Plasma samples were stored at −80° C. prior to bioanalysis.
Plasma samples were thawed on ice prior to processing. Samples (30 μL) were diluted and proteins precipitated with 180 μL of acetonitrile containing 0.1% formic acid and 250 ng/mL of carbutamide (N1-(butylcarbanoyl)-sulfanilamide, Sigma-Aldrich Catalog # S385433) as an internal standard. Samples were vortexed for 30 seconds, centrifuged at 3400 g for 10 minutes and the supernatant transferred to injection vials.
LC/MS/MS analysis was completed on an AB Sciex QTrap 6500 mass spectrometer in positive ionization mode, coupled to a Schimadzu Nexera LC system. A Waters Atlantis T3 (3 μm, 3.0×50 mm) column was used for chromatographic separation. Injection volume was […] The mobile phase consisted 0.1% formic acid in water (A) and 0.1% formic acid in acetonitrile (B), with a gradient of 2-98% B:A over two minutes.
Plasma concentration vs. time profiles following intravenous (IV) administration and oral (PO) administration of exemplar compounds were analyzed by non-compartment analysis using WinNonLin 6.4.

[6] = test system: E. coli ARC2687 (AmpC, CTX-M-14); assay: Cefpodoxime MIC against clinical isolate E. coli ARC2687; assay type: cell-based
[7] = test system: E. coli AmpC, OXA-1, CTX-M-15, TEM-1; assay: MIC, CLSI broth microdilution, cefpodoxime with or without BLI; assay type: cell-based; conditions: Escherichia coli, read-out: MIC of beta-lactam alone, heading: MIC of beta-lactam alone, no BLI
Method: as §2

[8] = BLI at fixed 4 μg/ml, K. pneumoniae ATCC 700603

Chain of TEM-1 (Class A beta-lactamase) (P62593 whole entry, looked up, species assumed): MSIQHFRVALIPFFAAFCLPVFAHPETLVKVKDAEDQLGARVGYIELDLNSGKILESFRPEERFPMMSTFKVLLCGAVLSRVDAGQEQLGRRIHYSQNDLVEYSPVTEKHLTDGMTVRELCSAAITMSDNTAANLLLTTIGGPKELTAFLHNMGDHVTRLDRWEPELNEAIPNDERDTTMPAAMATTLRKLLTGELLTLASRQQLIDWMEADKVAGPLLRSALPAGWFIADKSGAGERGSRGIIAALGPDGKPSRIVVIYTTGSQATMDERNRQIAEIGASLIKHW
Chain of OXA-48 (Class D beta-lactamase) (Q6XEC0 whole entry, looked up, species assumed): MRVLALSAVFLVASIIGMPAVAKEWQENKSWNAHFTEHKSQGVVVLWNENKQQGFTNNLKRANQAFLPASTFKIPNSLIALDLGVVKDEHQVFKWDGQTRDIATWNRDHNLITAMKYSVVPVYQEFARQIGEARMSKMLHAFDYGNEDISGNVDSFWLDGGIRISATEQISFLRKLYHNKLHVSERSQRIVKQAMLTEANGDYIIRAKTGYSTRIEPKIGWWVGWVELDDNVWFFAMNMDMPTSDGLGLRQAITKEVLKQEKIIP

Structure (SMILES): CC1=C[C@@H](C(N)=O)N2C[C@@H]1N(O[C@H](F)C(=O)O)C2=O [Example 33, (2R)-2-(((2S,5R)-2-carbamoyl-4-methyl-7-oxo-1,6-diazabicyclo[3.2.1]oct-3-en-6-yl)oxy)-2-fluoroacetic acid lithium salt]
IC50 [1]: 0.0032 µM
IC50 [2]: 0.077 µM
MIC of cefixime in presence of BLI ([3]; BLI at fixed 4 μg/ml): ≤0.06 µg/mL
MIC of cefuroxime in presence of BLI ([3]; BLI at fixed 4 μg/ml): <0.03125 µg/mL
MIC of faropenem in presence of BLI ([3]; BLI at fixed 4 μg/ml): ≤0.06 µg/mL
MIC of tebipenem in presence of BLI ([3]; BLI at fixed 4 μg/ml): ≤0.06 µg/mL
MIC of cefixime in presence of BLI (E. coli WT (ATCC 25922); BLI at fixed 4 μg/ml): ≤0.06 µg/mL
MIC of cefuroxime in presence of BLI (E. coli WT (ATCC 25922); BLI at fixed 4 μg/ml): <0.03125 µg/mL
MIC of faropenem in presence of BLI (E. coli WT (ATCC 25922); BLI at fixed 4 μg/ml): ≤0.06 µg/mL
MIC of tebipenem in presence of BLI (E. coli WT (ATCC 25922); BLI at fixed 4 μg/ml): ≤0.06 µg/mL
MIC of cefixime in presence of BLI [4, 8]: ≤0.06 µg/mL
MIC of cefuroxime in presence of BLI [4, 8]: 4 µg/mL
MIC of faropenem in presence of BLI [4, 8]: 0.5 µg/mL
MIC of tebipenem in presence of BLI [4, 8]: 0.125 µg/mL
AUC [5]: 26.3 µM·h
cefpodoxime MIC in combination with BLI ([6]; BLI at 4 μg/mL): < 0.03 µg/mL

MIC ([3]; Citrobacter freundii, read-out: MIC of beta-lactam alone, no BLI, heading: MIC of beta-lactam alone): > 64 µg/mL
MIC of beta-lactam alone ([3]; no BLI): >64 µg/mL
MIC (E. coli WT (ATCC 25922); Escherichia coli, ATCC25922, no BLI, read-out: MIC of beta-lactam alone): 1 µg/mL
MIC ([4]; Klebsiella pneumoniae, ATCC700603, no BLI, K. pneumoniae SHV-18, OXA-2, OKP-6 (ATCC 700603), read-out: MIC of beta-lactam alone): 16 µg/mL
MIC [7]: > 64 µg/mL
MIC ([6]; Escherichia coli, cefpodoxime alone): > 512 µg/mL
Structure (SMILES): COCC1=C(C(=O)O)N2C(=O)[C@@H](NC(=O)/C(=N\OC)c3csc(N)n3)[C@H]2SC1 [Cefpodoxime, reference compound]
